Data taken from paper PMC12203428, “Discovery of Clonixeril as a Sub-Femtomolar Modulator of the Human STING Receptor” (ACS Central Science, 2025).
pEC50: −log10 of the molar value. “Also recorded” adds a separate entry of the source.

What was measured:
[1] = test system: hSTING WT pathway (THP1 Dual KI-hSTING-R232 cells, IRF3 luciferase reporter)
Description: 2 Luciferase assay utilizing monocytic leukemia (THP-1) cells. Cells (Invivogen THP1 Dual KI-hSTING-R232; wild type) were analyzed for activation of the hSTING WT pathway via an IRF3 luciferase reporter. Luminescence is reported in relative luminescence units (RLU).
A study was performed to determine that five hundred thousand cells/mL was the optimal cell density. An optimization study was performed to determine the maximum DMSO percentage so as not to impact the viability of the cells. […] The chosen concentration was 4 μM. The cells were tested with lipofectamine and compared to wells prepared without lipofectamine.

[2] = test system: THP1 STING knockout cells; assay: STING knockout THP-1 luciferase assay; format: cell-based, human; settings: WT-THP1 vs THP1 STING knockout cells
Description: docking algorithm to properly calculate estimated free energies of binding for the LD-protein […]
Differential Scanning Fluorimetry – Thermal Shift Experiment […]
to the endogenous ligand, 2’,3’-cGAMP, 2) unbound and 3) bound to ligands chosen by the virtual screening process for their potential to stabilize the active form of the STING molecule by binding to it. A TSA measures a protein's melting temperature (Tm), at which the protein is 50% denatured. The assay quantifies protein denaturation by measuring the increase in fluorescence of a dye that binds to hydrophobic residues exposed by unfolding of the protein.
To determine clonixeril’s hydrolytic stability and evaluate its potential as an oral drug, an aqueous solution was concentrated for analysis at 20 µM. The sample was analyzed by HPLC using an […]
The UV spectra of these peaks were compared by diode array and found to be identical with maximum absorbance at 280nm and 343nm. […]
the minor first peak matched the molecular weight of clonixin (M+H)+ and the second major peak matched the molecular weight of clonixeril (M+H)+. […] Hydrolysis of clonixeril to clonixin was measured by HPLC over seven days using a 20 µM aqueous solution. […]
Figure S4. […] (D) Quantification of luciferase assay performed using WT-THP1 and THP1 STING knockout cells in the presence and absence of clonixeril and/or 2’,3’-cGAMP. […]

[3] = target: hSTING (Homo sapiens, UniProt Q86WV6, H232R); assay: Summary of interaction of CXL with hSTING in vitro and in cellulo; settings: read-out: EC50, first mode of interaction with hSTING
[4] = test system: hSTING phosphorylation (p-hSTING) in HEK293 cells; assay: HEK293 pSTING Western blot with 2′,3′-cGAMP; format: cell-based, human
Description: Since phosphorylation of Ser366 of hSTING is a necessary step to initiate recruitment, subsequent docking, and phosphorylation of IRF3, we investigated whether CXL would affect hSTING phosphorylation levels in cellulo. Thus, HEK293 cells were treated with varying concentrations of CXL (1fM-1nM) for one hour prior to 2 μM 2′,3′-cGAMP treatment for 90 min (Figure A) or 2 h (Figure C). An optimized dose of 2 μM 2′,3′-cGAMP was based on a dose–response study done for this experiment. A control group was treated with vehicle for 1 h followed by 2 μM 2′,3′-cGAMP for 1 or 2 h (Figure C) Total protein lysates were collected and analyzed by Western blotting using antibodies against p-hSTING, hSTING, and β-actin.
HEK293 cells were seeded at 700,000 cells per 60 mm plate confluency and treated 36 h later. […] Vehicle control group was treated with Escort IV reagent and DMSO for 1 h prior to 2 μM 2′,3′-cGAMP (InvivoGen) for 1 h and 30 min using Escort IV transfection reagent. DMSO concentration was kept constant across all treatment groups. Total cell lysates were collected and analyzed by Western blotting using antibodies against p-STING, STING, and β-actin. […] Data points were analyzed with a one-way ANOVA test using PRISM9 statistical analysis software (GraphPad). A level of p < 0.05 was considered statistically significant.

[5] = target: T1, hSTING CTD (STING R232 variant) (Homo sapiens, UniProt Q86WV6, H232R); assay: Microscale thermophoresis; format: binding; settings: Log inhibitor versus response fit
T1 construct: 6X-His tagged hSTING^WT, R232 variant, CTD protein was purchased; purchased Invivogen (USA) or Cayman Chemicals (USA)
T1 sequence (Q86WV6 153-340 H232R): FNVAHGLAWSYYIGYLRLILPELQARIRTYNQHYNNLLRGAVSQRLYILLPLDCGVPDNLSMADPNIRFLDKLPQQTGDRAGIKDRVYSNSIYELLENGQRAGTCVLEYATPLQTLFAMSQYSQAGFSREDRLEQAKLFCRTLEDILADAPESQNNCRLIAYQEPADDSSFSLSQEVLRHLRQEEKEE
Description: Small molecule affinities at subpicomolar concentrations are typically difficult to determine by MST due to the inability of the detector to measure differential movement of proteins when largely disproportionate ratios of protein to ligand are involved. […] Generally, an IC50 correlates well with a K D when a small molecule competes for binding with a natural substrate for a target protein.
The resulting mixture was centrifuged at 12,000 x RPM 10 min prior to use. […] The samples were run again at 30- and 45 min. Detection of the protein was performed using the blue detection channel with excitation power set to 100% and MST set to high allowing 3 s prior to MST on to check for initial fluorescence differences, 35 s for thermophoresis, and 3 s for regeneration after MST off. Analysis was performed using M.O. Affinity Analysis Software with difference between initial fluorescence measured in the first 5 s as compared with thermophoresis at 30 s at 16 different analyte concentrations ranging from 100 μM to 100 zM and exported into Graphpad Prism v.8 using a Log inhibitor versus response for parameter fit.

[6] = test system: hSTING CTD; assay: Differential scanning fluorimetry (thermal shift); format: binding, human; settings: 200 μM
Description: Differential Scanning Fluorimetry (Thermal Shift) for Binders of STING.
Compounds selected (57) from computational virtual screening for analysis at 200 μM in the thermal shift assay are
shown here as green dots with blue diamond indicating the temperature range of denaturation. The red box indicates

pEC50 [3]: < 9.00
Hillslope (MST fit) [5]: −1.669
Structure (SMILES): Cc1c(Cl)cccc1Nc1ncccc1C(=O)OCC(O)CO (centres unmarked) [CXL, clonixeril]
Antagonism of hSTING pathway in luciferase reporter assay ([1]; compound 1 h, then 4 μM 2′,3′-cGAMP): inverse dose response; also recorded: antagonism of the hSTING^WT pathway
Concentration of maximum inhibition ([1]; reviewer's summary of IRF3 reporter assay): 100 aM
Pathway dependence of effect on pIRF3 production [2]: affecting pIRF3 production only through the STING pathway
Effect on hSTING phosphorylation, CXL prior to 2′,3′-cGAMP ([4]; CXL 1 fM-1 nM 1 h, then 2 μM 2′,3′-cGAMP): downregulated hSTING phosphorylation close to near basal cellular levels
Effect on hSTING phosphorylation, 2′,3′-cGAMP prior to CXL ([4]; same concentration range): inhibitory activity was not observed
Thermal shift [6]: negative thermal shift
